According to patent US9474790B2, “Stable, protracted GLP-1/glucagon receptor co-agonists for medical use” (Novo Nordisk A/S, priority 2013, dated 2016):
Numbered stars: 1 amine (or outer) side, 2 acyl side, 3 side chain; on linkers, the order of the positions; unused ones are H or OH. Square brackets hold non-standard residues; d marks the D form. Side chains are listed from the residue outwards. Peptide text beside a SMILES is read from it. * marks the point of attachment. C18 diacid = O=C(O)CCCCCCCCCCCCCCCCC(=O)*; γGlu = O=C(O)[C@H](CCC(=O)[*:2])N[*:1]; Ac4c = NC1(C(=O)O)CCC1; AEEA = NCCOCCOCC(=O)O

Target: T1, human glucagon receptor (Homo sapiens, UniProt P47871)
T1 construct: expressed in transfected cells; host or cells: BHK cells (parent BHK570, CRE luciferase clone BHK/KZ10-20-48), clone pLJ6'-4-25
T1 sequence (P47871 26-477): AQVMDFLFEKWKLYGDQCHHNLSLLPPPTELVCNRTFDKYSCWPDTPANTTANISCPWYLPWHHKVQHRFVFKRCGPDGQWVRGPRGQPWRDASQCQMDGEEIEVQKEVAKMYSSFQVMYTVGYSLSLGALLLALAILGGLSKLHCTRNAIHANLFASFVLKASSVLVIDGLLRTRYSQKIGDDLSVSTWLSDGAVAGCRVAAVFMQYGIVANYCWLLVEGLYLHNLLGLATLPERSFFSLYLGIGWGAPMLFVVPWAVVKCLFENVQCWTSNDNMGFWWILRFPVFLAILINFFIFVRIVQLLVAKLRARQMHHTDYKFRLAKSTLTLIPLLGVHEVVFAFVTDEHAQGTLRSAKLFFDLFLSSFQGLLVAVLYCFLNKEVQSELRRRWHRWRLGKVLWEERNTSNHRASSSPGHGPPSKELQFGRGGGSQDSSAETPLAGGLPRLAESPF
Test: Glucagon receptor potency, CRE luciferase reporter gene assay in BHK cells
Type: cell-based
Conditions: BHK cells expressing human glucagon receptor, read-out: EC50 GlucR
In short: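 Stably transfected BHK cells (BHK570 background) expressing human glucagon receptor with CRE-firefly luciferase reporter, 5×10EE3 cells/well in DMEM/HEPES with 2% ovalbumin and 0.2% Pluronic F-68. Compounds 1×10EE-13 to 1×10EE-6 M final, 3 h at 37 °C; luminescence read, EC50 from four-parameter fit, in pM.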

SMILES | EC50
CC(C)C[C@H](NC(=O)[C@H](Cc1ccc(O)cc1)NC(=O)[C@H](CCCCN)NC(=O)[C@H](CO)NC(=O)[C@H](CC(C)C)NC(=O)[C@H](CC(=O)O)NC(=O)[C@H](CO)NC(=O)[C@@H](NC(=O)[C@H](Cc1ccccc1)NC(=O)[C@@H](NC(=O)CNC(=O)[C@H](CCC(N)=O)NC(=O)C1(NC(=O)[C@@H](N)Cc2c[nH]cn2)CCC1)[C@@H](C)O)[C@@H](C)O)C(=O)N[C@@H](CCC(=O)O)C(=O)N[C@@H](CO)C(=O)N[C@@H](CCCNC(=N)N)C(=O)N[C@@H](CCCNC(=N)N)C(=O)N[C@@H](C)C(=O)N[C@@H](CCCNC(=N)N)C(=O)N[C@@H](CCC(=O)O)C(=O)N[C@@H](Cc1ccccc1)C(=O)N[C@H](C(=O)N[C@@H](CCC(N)=O)C(=O)N[C@@H](Cc1c[nH]c2ccccc12)C(=O)N[C@@H](CC(C)C)C(=O)N[C@@H](CC(C)C)C(=O)N[C@@H](CCCCNC(=O)CC[C@H](NC(=O)CC[C@H](NC(=O)COCCOCCNC(=O)COCCOCCNC(=O)CC[C@H](NC(=O)CCCCCCCCCCCCCCCCC(=O)O)C(=O)O)C(=O)O)C(=O)O)C(=O)N[C@H](C(N)=O)[C@@H](C)O)C(C)C [Example 44, N^ε28-[(4S)-4-carboxy-4-[[(4S)-4-carboxy-4-[[2-[2-[2-[[2-[2-[2-[[(4S)-4-carboxy-4-(17-carboxyheptadecanoylamino)butanoyl]amino]ethoxy]ethoxy]acetyl]amino]ethoxy]ethoxy]acetyl]amino]butanoyl]amino]butanoyl]-[Acb2,Leu10,Glu15,Arg20,Glu21,Leu27,Lys28]-Glucagon amide] (H-H[Ac4c]QGTFTSDLSKYLESRRAREFVQWLLK([γGlu-γGlu-AEEA-AEEA-γGlu-C18 diacid])T-NH2; N-terminus assumed) | 10 pM
CC(C)C[C@H](NC(=O)[C@H](CC(=O)O)NC(=O)[C@H](CC(C)C)NC(=O)[C@H](Cc1ccc(O)cc1)NC(=O)[C@H](CCCNC(=N)N)NC(=O)[C@H](CO)NC(=O)[C@H](CC(C)C)NC(=O)[C@H](CC(=O)O)NC(=O)[C@H](CO)NC(=O)[C@@H](NC(=O)[C@H](Cc1ccccc1)NC(=O)[C@@H](NC(=O)CNC(=O)[C@H](CCC(N)=O)NC(=O)C1(NC(=O)[C@@H](N)Cc2c[nH]cn2)CCC1)[C@@H](C)O)[C@@H](C)O)C(=O)N[C@@H](CCCNC(=N)N)C(=O)N[C@@H](CCCNC(=N)N)C(=O)N[C@@H](C)C(=O)N[C@@H](CCCNC(=N)N)C(=O)N[C@@H](CC(=O)O)C(=O)N[C@@H](Cc1ccccc1)C(=O)N[C@H](C(=O)N[C@@H](CCC(N)=O)C(=O)N[C@@H](Cc1c[nH]c2ccccc12)C(=O)N[C@@H](CC(C)C)C(=O)N[C@@H](CC(C)C)C(=O)N[C@@H](CCCCNC(=O)CC[C@H](NC(=O)CC[C@H](NC(=O)COCCOCCNC(=O)COCCOCCNC(=O)CC[C@H](NC(=O)CC[C@H](NC(=O)CCCCCCCCCCCCCCCCC(=O)O)C(=O)O)C(=O)O)C(=O)O)C(=O)O)C(=O)N[C@H](C(N)=O)[C@@H](C)O)C(C)C [Example 46, N^ε28-[(4S)-4-carboxy-4-[[(4S)-4-carboxy-4-[[2-[2-[2-[[2-[2-[2-[[(4S)-4-carboxy-4-[[(4S)-4-carboxy-4-(17-carboxyheptadecanoylamino)butanoyl]amino]butanoyl]amino]ethoxy]ethoxy]acetyl]amino]ethoxy]ethoxy]acetyl]amino]butanoyl]amino]butanoyl]-[Acb2,Leu10,Arg12,Leu16,Arg20,Leu27,Lys28]-Glucagon amide] (H-H[Ac4c]QGTFTSDLSRYLDLRRARDFVQWLLK([γGlu-γGlu-AEEA-AEEA-γGlu-γGlu-C18 diacid])T-NH2; N-terminus assumed) | 16 pM
CC(C)C[C@H](NC(=O)[C@H](CC(=O)O)NC(=O)[C@H](CC(C)C)NC(=O)[C@H](Cc1ccc(O)cc1)NC(=O)[C@H](CCCCN)NC(=O)[C@H](CO)NC(=O)[C@H](CC(C)C)NC(=O)[C@H](CC(=O)O)NC(=O)[C@H](CO)NC(=O)[C@@H](NC(=O)[C@H](Cc1ccccc1)NC(=O)[C@@H](NC(=O)CNC(=O)[C@H](CCC(N)=O)NC(=O)C1(NC(=O)[C@@H](N)Cc2c[nH]cn2)CCC1)[C@@H](C)O)[C@@H](C)O)C(=O)N[C@@H](CCCCN)C(=O)N[C@@H](CCCNC(=N)N)C(=O)N[C@@H](C)C(=O)N[C@@H](CCCNC(=N)N)C(=O)N[C@@H](CCC(=O)O)C(=O)N[C@@H](Cc1ccccc1)C(=O)N[C@H](C(=O)N[C@@H](CCC(N)=O)C(=O)N[C@@H](Cc1c[nH]c2ccccc12)C(=O)N[C@@H](CC(C)C)C(=O)N[C@@H](CC(C)C)C(=O)N[C@@H](CCCCNC(=O)CC[C@H](NC(=O)CC[C@H](NC(=O)COCCOCCNC(=O)COCCOCCNC(=O)CC[C@H](NC(=O)CC[C@H](NC(=O)CCCCCCCCCCCCCCCCC(=O)O)C(=O)O)C(=O)O)C(=O)O)C(=O)O)C(=O)N[C@H](C(N)=O)[C@@H](C)O)C(C)C [Example 47, N^ε28-[(4S)-4-carboxy-4-[[(4S)-4-carboxy-4-[[2-[2-[2-[[2-[2-[2-[[(4S)-4-carboxy-4-[[(4S)-4-carboxy-4-(17-carboxyheptadecanoylamino)butanoyl]amino]butanoyl]amino]ethoxy]ethoxy]acetyl]amino]ethoxy]ethoxy]acetyl]amino]butanoyl]amino]butanoyl]-[Acb2,Leu10,Leu16,Lys17,Arg20,Glu21,Leu27,Lys28]-Glucagon amide] (H-H[Ac4c]QGTFTSDLSKYLDLKRAREFVQWLLK([γGlu-γGlu-AEEA-AEEA-γGlu-γGlu-C18 diacid])T-NH2; N-terminus assumed) | 5 pM
CC(C)C[C@H](NC(=O)[C@H](CC(=O)O)NC(=O)[C@H](CC(C)C)NC(=O)[C@H](Cc1ccc(O)cc1)NC(=O)[C@H](CCCCN)NC(=O)[C@H](CO)NC(=O)[C@H](CC(C)C)NC(=O)[C@H](CC(=O)O)NC(=O)[C@H](CO)NC(=O)[C@@H](NC(=O)[C@H](Cc1ccccc1)NC(=O)[C@@H](NC(=O)CNC(=O)[C@H](CCC(N)=O)NC(=O)C1(NC(=O)[C@@H](N)Cc2c[nH]cn2)CCC1)[C@@H](C)O)[C@@H](C)O)C(=O)N[C@@H](CCCNC(=N)N)C(=O)N[C@@H](CCCNC(=N)N)C(=O)N[C@@H](C)C(=O)N[C@@H](CCCNC(=N)N)C(=O)N[C@@H](CCC(=O)O)C(=O)N[C@@H](Cc1ccccc1)C(=O)N[C@H](C(=O)N[C@@H](CCC(N)=O)C(=O)N[C@@H](Cc1c[nH]c2ccccc12)C(=O)N[C@@H](CC(C)C)C(=O)N[C@@H](CC(C)C)C(=O)N[C@@H](CCCCNC(=O)CC[C@H](NC(=O)CC[C@H](NC(=O)COCCOCCNC(=O)COCCOCCNC(=O)CC[C@H](NC(=O)CC[C@H](NC(=O)CCCCCCCCCCCCCCCCC(=O)O)C(=O)O)C(=O)O)C(=O)O)C(=O)O)C(=O)N[C@H](C(N)=O)[C@@H](C)O)C(C)C [Example 49, N^ε28-[(4S)-4-carboxy-4-[[(4S)-4-carboxy-4-[[2-[2-[2-[[2-[2-[2-[[(4S)-4-carboxy-4-[[(4S)-4-carboxy-4-(17-carboxyheptadecanoylamino)butanoyl]amino]butanoyl]amino]ethoxy]ethoxy]acetyl]amino]ethoxy]ethoxy]acetyl]amino]butanoyl]amino]butanoyl]-[Acb2,Leu10,Leu16,Arg20,Glu21,Leu27,Lys28]-Glucagon amide] (H-H[Ac4c]QGTFTSDLSKYLDLRRAREFVQWLLK([γGlu-γGlu-AEEA-AEEA-γGlu-γGlu-C18 diacid])T-NH2; N-terminus assumed) | 4 pM
